Test results taken from US11952344B2, “Heterocyclic compound and use thereof” (TAKEDA PHARMACEUTICAL COMPANY LIMITED, priority 2019, dated 2024).

Columns and labels:
[1] = tested on: NMDA receptor; conditions: in vivo; cited from earlier work
[2] = molecular target: T1, NMDA receptor containing the NR2B subunit (Homo sapiens, UniProt Q13224); conditions: continuous intravenous administration; cited from earlier work
[3] = molecular target: T2, NMDA receptor containing the NR2B subunit (Rattus norvegicus, UniProt Q00960); conditions: rodents; cited from earlier work
T2 sequence (Q00960 27-1482, other chains not shown): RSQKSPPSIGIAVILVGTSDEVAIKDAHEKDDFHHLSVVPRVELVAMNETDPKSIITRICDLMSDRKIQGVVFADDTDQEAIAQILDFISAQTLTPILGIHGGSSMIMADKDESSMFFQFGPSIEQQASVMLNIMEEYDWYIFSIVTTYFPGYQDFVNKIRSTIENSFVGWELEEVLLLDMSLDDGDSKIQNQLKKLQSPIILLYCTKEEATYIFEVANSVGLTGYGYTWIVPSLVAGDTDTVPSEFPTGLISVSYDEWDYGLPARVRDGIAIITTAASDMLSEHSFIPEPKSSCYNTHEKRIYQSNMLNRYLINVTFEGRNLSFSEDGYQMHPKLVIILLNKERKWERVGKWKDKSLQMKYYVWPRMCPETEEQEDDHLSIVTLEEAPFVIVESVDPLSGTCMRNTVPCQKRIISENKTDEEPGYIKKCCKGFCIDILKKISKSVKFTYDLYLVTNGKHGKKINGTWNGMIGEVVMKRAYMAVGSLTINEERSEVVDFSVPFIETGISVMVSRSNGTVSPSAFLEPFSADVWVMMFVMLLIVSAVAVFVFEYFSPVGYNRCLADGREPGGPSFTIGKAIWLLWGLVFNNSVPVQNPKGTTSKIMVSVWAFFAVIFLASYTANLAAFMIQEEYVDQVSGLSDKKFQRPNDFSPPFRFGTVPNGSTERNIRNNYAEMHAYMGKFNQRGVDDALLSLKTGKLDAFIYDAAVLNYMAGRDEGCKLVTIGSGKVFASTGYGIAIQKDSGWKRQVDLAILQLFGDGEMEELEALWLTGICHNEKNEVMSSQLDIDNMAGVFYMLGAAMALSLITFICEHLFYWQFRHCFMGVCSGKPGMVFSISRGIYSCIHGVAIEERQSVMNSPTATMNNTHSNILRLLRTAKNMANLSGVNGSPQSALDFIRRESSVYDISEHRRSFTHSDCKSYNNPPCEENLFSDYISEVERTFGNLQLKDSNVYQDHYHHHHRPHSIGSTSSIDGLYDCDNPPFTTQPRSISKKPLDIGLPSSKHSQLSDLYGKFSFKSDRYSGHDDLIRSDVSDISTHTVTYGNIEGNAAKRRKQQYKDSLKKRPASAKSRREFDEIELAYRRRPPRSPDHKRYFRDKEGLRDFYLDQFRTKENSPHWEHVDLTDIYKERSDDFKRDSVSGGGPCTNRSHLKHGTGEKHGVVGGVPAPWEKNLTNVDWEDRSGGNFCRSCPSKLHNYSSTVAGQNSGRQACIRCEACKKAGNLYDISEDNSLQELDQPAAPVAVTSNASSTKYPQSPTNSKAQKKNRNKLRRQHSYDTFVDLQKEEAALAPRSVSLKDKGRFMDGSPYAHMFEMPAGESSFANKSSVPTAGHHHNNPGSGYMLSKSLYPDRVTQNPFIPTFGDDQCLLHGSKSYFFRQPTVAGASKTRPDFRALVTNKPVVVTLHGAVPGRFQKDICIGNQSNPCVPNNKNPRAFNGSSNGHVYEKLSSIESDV

[4] = tested on: NMDA receptor; conditions: single intravenous administration; major depression and bipolar disorder; cited from earlier work
[5] = molecular target: T1, NMDA receptor containing the NR2B subunit; conditions: in vivo; cited from earlier work
[6] = molecular target: T3, Human NMDA (NR1/NR2B) Receptor (Homo sapiens, UniProt Q13224); assay: NR2B Ca2+ influx assay; type: cell-based; conditions: 10 μM compound; HEK293 cells expressing GRIN1 and GRIN2B; glutamic acid/glycine-induced Ca2+ influx, Fluo-4 fluorescence; read-out: inhibitory rate (10 μM compound concentration)
T3 construct: host or cells: HEK293
T3 sequence (Q13224 27-1484, other chains not shown): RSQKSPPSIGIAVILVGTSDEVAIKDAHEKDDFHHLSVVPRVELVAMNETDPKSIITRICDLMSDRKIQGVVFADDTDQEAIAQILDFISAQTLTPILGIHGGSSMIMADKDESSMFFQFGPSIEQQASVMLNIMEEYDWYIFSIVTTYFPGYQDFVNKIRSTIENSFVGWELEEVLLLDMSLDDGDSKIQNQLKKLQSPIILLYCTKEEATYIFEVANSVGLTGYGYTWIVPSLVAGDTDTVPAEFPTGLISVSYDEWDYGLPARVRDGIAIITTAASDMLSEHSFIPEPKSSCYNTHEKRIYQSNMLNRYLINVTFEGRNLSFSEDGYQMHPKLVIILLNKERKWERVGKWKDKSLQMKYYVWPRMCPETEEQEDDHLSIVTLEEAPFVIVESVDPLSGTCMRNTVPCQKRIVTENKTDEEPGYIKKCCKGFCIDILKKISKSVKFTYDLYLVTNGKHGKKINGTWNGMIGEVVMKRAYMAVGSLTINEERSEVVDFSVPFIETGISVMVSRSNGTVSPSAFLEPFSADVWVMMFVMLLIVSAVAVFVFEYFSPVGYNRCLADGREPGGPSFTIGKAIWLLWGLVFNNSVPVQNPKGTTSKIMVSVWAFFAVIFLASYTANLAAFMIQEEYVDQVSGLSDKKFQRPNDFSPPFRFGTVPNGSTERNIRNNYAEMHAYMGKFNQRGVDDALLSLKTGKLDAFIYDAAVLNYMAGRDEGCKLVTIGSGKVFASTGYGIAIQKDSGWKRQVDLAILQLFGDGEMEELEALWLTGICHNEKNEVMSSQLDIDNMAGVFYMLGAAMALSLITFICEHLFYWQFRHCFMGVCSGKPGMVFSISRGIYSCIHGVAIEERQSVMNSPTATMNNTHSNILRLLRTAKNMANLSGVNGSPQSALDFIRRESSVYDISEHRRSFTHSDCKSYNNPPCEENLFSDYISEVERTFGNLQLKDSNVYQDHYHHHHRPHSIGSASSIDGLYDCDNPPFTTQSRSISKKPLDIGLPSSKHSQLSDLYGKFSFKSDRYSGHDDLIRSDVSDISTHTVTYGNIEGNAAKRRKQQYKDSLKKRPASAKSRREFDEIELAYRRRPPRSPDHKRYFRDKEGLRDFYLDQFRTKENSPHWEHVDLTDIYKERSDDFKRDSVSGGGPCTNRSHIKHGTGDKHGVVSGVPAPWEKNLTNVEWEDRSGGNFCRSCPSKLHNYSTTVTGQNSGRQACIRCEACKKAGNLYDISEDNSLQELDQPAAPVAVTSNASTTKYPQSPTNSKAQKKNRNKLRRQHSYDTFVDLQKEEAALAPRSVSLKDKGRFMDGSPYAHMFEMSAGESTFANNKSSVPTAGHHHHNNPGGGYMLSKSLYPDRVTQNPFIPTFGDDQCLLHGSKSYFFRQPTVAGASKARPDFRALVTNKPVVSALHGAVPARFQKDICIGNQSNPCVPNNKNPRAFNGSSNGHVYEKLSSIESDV
Outline: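 HEK293 cells stably expressing human GRIN1/GRIN2B were tetracycline-induced for 2 h, loaded with Fluo-4AM and preincubated 15 min at room temperature with compound at 10 μM final. Ca2+ influx was triggered by glutamic acid and glycine and fluorescence (ex 480/em 540 nm) was recorded for 5 min. Inhibition was computed from cumulative fluorescence.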

[7] = molecular target: T2, NMDA receptor containing the NR2B subunit; assay: [3H]MK-801 binding test in vivo (hippocampus); design: from tissue; host or cells: rat hippocampus (Sprague Dawley); species or system Sprague Dawley rats; conditions: po, [3H]MK-801 binding inhibitory rate, 1 mg/kg p.o., vehicle = 100% binding, excess MK-801 maleate = 0%
Method: Experimental Example 2 [^3H]MK-801 Binding Test In Vivo
In order to confirm “functional antagonistic action on an NMDA receptor containing the NR2B subunit in vivo” which the compound of the present invention has, binding test was performed using tritium-labeled form of MK-801 ((5R,10S)-5-methyl-10,11-dihydro-5H-5,10-epiminodibenzo[a,d][7]annulene) ([^3H]MK-801), which is a compound capable of binding to the opening site of the NMDA receptor.
The example compound (1 mg/kg/2 mL, 0.5% MC water) or vehicle ([…], 0.5% MC water) was orally administered (p.o.) to Sprague Dawley rats (body weight 180-260 g). After a certain time (around after time-to maximum blood concentration), [^3H]MK-801 (20 μCi/kg/mL, Muromachi Kikai) was intravenously administered. After 10 min, the rats were euthanized by decapitation, and subjected to craniotomy, and the hippocampus was collected. The collected hippocampus was homogenized in 30 volumes (30 mL per 1 g tissue) ice-cooled 20 mM Hepes (pH7.5, Hampton Research) using a homogenizer (T10 basic Ultra-Turrax) for […]. […] The filter was washed four times with ice-cooled saline (5 mL, Otsuka Pharmaceutical), put into a scintillation vial, and then 10 mL of liquid scintillator A (FUJIFILM Wako Pure Chemical Corporation) was added thereto, and the residual radioactivity was counted using liquid scintillation counter (ALOKA LSC-6100). Separately, the residual radioactivity in 100 μL of the homogenate before the filtration was counted in the same way. The value of [the residual radioactivity in the filter/the residual radioactivity in the 100 μL of the homogenate] was calculated as a [^3H]MK-801 binding rate to the NMDA receptor expressing in each individual hippocampus tissue. […] The difference between the percentage of [^3H]MK-801 binding rate in the group orally administered with the example compound and that in the vehicle control group (100%) was analyzed as [^3H]MK-801 binding inhibitory rate by the example compound.

T1 sequence (Q13224 27-1484, other chains not shown): as above

In the case of `CC12CC3CC(C)(C1)CC(N)(C3)C2` [memantine], the “improvement of peripheral symptoms of dementia” value [1] is listed as “partially improves peripheral symptoms of dementia”.
For `C[C@@H]([C@@H](O)c1ccc(O)cc1)N1CCC(O)(c2ccccc2)CC1` [CP-101, 606], the “improvement of treatment resistant-depression symptom” value [2] is given as “significantly improves treatment resistant-depression symptom” and the “number of occurrence and depth of cortical spreading depression” value [3] is given as “suppress the number of occurrence and the depth of cortical spreading depression”.
In the case of `C[C@@H](CN1CCC(Cc2ccccc2)CC1)[C@@H](O)c1ccc(O)cc1` [Ro25-6981], the “number of occurrence and depth of cortical spreading depression” value [3] is given as “suppress the number of occurrence and the depth of cortical spreading depression”.
For `CNC1(c2ccccc2Cl)CCCCC1=O` (stereo not shown) [ketamine], the “improvement of depression symptom” value [4] is listed as “improves depression symptom accompanying major depression and bipolar disorder rapidly and in a sustained manner”.
For `CC(C(O)c1ccc(O)cc1)N1CCC(Cc2ccccc2)CC1` (stereo not shown) [Ifenprodil], the pain sense threshold [5] is given as “the pain sense threshold increases”.
`COc1ncncc1CNC(=O)c1cc(F)c(OC(F)F)c(F)c1` [Example 63, 4-(difluoromethoxy)-3,5-difluoro-N-[(4-methoxypyrimidin-5-yl)methyl]benzamide] showed an inhibition at 10 µM [6] of 90% and an inhibition at 1 mg/kg [7] of 10%.
`COc1ncncc1CNC(=O)c1cnc(OC(F)F)c(F)c1` [Example 12, 6-(difluoromethoxy)-5-fluoro-N-[(4-methoxypyrimidin-5-yl)methyl]pyridine-3-carboxamide] gave an inhibition at 10 µM [6] of 92% and an inhibition at 1 mg/kg [7] of 23%.
`Cc1ccncc1CNC(=O)c1ccc(C(F)(F)F)s1` [Example 64, N-[(4-methylpyridin-3-yl)methyl]-5-(trifluoromethyl)thiophene-2-carboxamide] gave an inhibition at 10 µM [6] of 85%.
With `COc1cncc(CNC(=O)c2cnc(OC(F)F)c(F)c2)c1` [Example 42, 6-(difluoromethoxy)-5-fluoro-N-[(5-methoxypyridin-3-yl)methyl]pyridine-3-carboxamide] the inhibition at 10 µM [6] was 94% and the inhibition at 1 mg/kg [7] was 14%.
`CCOc1ncc(C(=O)NCc2cncnc2OC2CC2)cc1F` [Example 75, N-{[4-(cyclopropyloxy)-pyrimidin-5-yl]methyl}-6-ethoxy-5-fluoropyridine-3-carboxamide] gave an inhibition at 10 µM [6] of 93%.
`Cc1ccncc1CNC(=O)c1cc(F)c(C(F)F)c(F)c1` [Example 57, 4-(difluoromethyl)-3,5-difluoro-N-[(4-methylpyridin-3-yl)methyl]benzamide] showed an inhibition at 10 µM [6] of 78%.
With `Cc1c(F)cncc1CNC(=O)c1cnc(OC(F)F)c(F)c1` [Example 40, 6-(difluoromethoxy)-5-fluoro-N-[(5-fluoro-4-methylpyridin-3-yl)methyl]pyridine-3-carboxamide] the inhibition at 10 µM [6] was 96%.
